This note sets out measurements from patent US20140158116A1, “INHIBITING TRPA1 FOR THE TREATMENT OF ASTHMA” (Cubist Pharmaceuticals, Inc., priority 2012, published 2014).

One data set deals with T1, hTRPV3 (Homo sapiens, UniProt Q8NET8).
T1 sequence (Q8NET8 1-790): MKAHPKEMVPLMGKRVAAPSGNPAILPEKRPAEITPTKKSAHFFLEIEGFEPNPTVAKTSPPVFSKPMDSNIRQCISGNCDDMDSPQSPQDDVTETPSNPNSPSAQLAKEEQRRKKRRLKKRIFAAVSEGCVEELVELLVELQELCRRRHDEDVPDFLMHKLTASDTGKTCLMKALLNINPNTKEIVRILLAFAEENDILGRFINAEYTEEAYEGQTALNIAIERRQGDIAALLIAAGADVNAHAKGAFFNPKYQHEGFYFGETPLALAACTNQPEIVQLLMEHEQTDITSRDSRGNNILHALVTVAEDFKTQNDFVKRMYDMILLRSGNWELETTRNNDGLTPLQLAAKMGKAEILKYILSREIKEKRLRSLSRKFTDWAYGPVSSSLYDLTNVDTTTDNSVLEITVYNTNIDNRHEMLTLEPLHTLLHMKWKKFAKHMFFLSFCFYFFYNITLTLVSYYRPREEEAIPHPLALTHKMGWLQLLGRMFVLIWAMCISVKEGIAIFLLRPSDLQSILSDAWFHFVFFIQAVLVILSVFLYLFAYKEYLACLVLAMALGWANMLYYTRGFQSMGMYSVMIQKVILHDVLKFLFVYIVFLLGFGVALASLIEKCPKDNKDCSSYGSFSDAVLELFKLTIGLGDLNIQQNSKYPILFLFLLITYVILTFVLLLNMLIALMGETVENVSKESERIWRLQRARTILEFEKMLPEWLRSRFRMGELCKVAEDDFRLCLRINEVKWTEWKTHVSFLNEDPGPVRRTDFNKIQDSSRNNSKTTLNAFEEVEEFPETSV
Briefly: Patch clamp selectivity, hTRPV3. The format is cell-based. The method, then: (§1) Data for TRPA1 inhibition and the selectivity of TRPA1 inhibition was obtained by this method for the compound of Formula (Ia) and included in Table 1 and Table 2. All currents were recorded in whole-cell configuration using EPC-9 and EPC-10 amplifiers and Patchmaster software (HEKA). […] The standard pipette solution consisted of 140 mM CsAsp, 10 mM EGTA, 10 mM HEPES, 2.27 mM MgCl2, 1.91 mM CaCl2, 4 mM MgATP, and 0.1-0.3 mM Na2GTP, with pH adjusted to 7.2 with CsOH. In addition, a solution containing 145 mM CsCl, 10 mM HEPES, 10 mM EGTA and 1 mM MgCl2 (pH 7.2 adjusted with CsOH) can be used. The standard bath solution contained 150 mM NaCl, 10 mM HEPES, 10 mM glucose, 4.5 mM KCl, 1 mM EGTA, 3 mM MgCl2, with pH adjusted to 7.4 with NaOH. In some instances, 2 mM CaCl2 was added in place of EGTA and the concentration of MgCl2 was reduced to 1 mM.
(§2) Data were collected either by continuous recordings at −60 mV or by applying voltage ramps from a holding potential of 0 mV every 4 s. […] Inward and outward currents were analyzed from the ramps at −80 and 80 mV, respectively. […]
(§3) Solutions were switched using a gravity-fed continuous focal perfusion system. […] Temperatures were confirmed using a thermistor (Warner Instruments, TA-29), with temperatures at the recorded cell estimated to be within +/−2° C. of those reported. […]

For a further data set, the target named is hTRPM8 (Homo sapiens, UniProt Q7Z2W7). Briefly: Patch clamp selectivity, hTRPM8. It counts as cell-based. On the procedure:
as §1, §2, §3
A general note: In patch-clamp work, channel activity is measured electrically.

A further data set concerns the target hERG (Homo sapiens, UniProt Q12809). Put plainly: Patch clamp selectivity, hERG. It counts as cell-based. On the procedure:
as §1, §2, §3

For a further data set, the target named is hNaV1.2 (Homo sapiens, UniProt Q99250). Briefly: Patch clamp selectivity, hNaV1.2. It counts as cell-based. On the procedure: as §1, §2, §3
Data set [1] is described as follows: Oral bioavailability pharmacokinetic study. The following applies: rat, plasma, PO versus IV. The format is in vivo. On the procedure:
The potency and pharmacokinetic (PK) properties of (a) the compound of Formula (Ia); and (b) comparator compound of Formula (III) were evaluated. Bioavailability was measured as well. A pharmacokinetic study was performed to obtain a plasma drug concentration vs time plot for the drug after both intravenous (IV) and oral (PO) administration. The absolute bioavailability is the dose-corrected area under curve (AUC) non-intravenous divided by AUC intravenous. The formula for calculating F for a drug administered by the oral route (PO) is given below.
The bioavailability was calculated using the equation shown below:
% F=AUC PO×Dose IV/AUC IV×Dose PO

Data set [2] in a line: Human plasma protein binding by equilibrium dialysis. It counts as in vitro ADME. As to conditions: percentage bound. The method, then: The amount of compound in buffer (free fraction) and the amount of compound associated with the plasma fraction is determined by equilibrium dialysis; the amount of compound bound is expressed as a percentage. (Banker et al., Journal of Pharmaceutical Sciences (2003) 92(5): 967-74.)
In general terms: In equilibrium dialysis free small molecules cross a membrane that holds back macromolecules.

Data set [3] can be described thus: Single ascending dose Phase 1A study. As to conditions: healthy male volunteers; 6 ascending single doses. It counts as in vivo, human. The text has this:
A randomized, double-blind, placebo-controlled, cross-over, single dose, safety, tolerability and pharmacokinetic study of 6 ascending doses of the compound of Formula (Ia) was undertaken in two cohorts of healthy male volunteers. A total of eighteen eligible healthy mail volunteers were recruited utilizing an alternating panel design. The first cohort of nine subjects (Cohort 1) was sequentially enrolled into 3 of 6 dosing periods (Dose Levels 1, 3, and 5). The remaining cohort of nine subjects (Cohort 2) was enrolled in the other 3 dosing periods (Dose Levels 2, 4, and 6). Within each dosing period, subjects were randomly assigned 2:1 to the compound of Formula (I) (n=6) or placebo (n=3). Each subject received one dose of placebo and two different doses of the compound of Formula (I) over the course of their participation in all three dosing periods. Subjects were equally randomized to one of 3 possible sequences, namely 1) placebo, active, active, 2) active, placebo, active, and 3) active, active, placebo.

The structures appear in SMILES notation. Where two headings read alike, the source gives them in different places. Where only a bound is given, the exact number is not on record here.

hERG, sequence (Q12809 whole entry): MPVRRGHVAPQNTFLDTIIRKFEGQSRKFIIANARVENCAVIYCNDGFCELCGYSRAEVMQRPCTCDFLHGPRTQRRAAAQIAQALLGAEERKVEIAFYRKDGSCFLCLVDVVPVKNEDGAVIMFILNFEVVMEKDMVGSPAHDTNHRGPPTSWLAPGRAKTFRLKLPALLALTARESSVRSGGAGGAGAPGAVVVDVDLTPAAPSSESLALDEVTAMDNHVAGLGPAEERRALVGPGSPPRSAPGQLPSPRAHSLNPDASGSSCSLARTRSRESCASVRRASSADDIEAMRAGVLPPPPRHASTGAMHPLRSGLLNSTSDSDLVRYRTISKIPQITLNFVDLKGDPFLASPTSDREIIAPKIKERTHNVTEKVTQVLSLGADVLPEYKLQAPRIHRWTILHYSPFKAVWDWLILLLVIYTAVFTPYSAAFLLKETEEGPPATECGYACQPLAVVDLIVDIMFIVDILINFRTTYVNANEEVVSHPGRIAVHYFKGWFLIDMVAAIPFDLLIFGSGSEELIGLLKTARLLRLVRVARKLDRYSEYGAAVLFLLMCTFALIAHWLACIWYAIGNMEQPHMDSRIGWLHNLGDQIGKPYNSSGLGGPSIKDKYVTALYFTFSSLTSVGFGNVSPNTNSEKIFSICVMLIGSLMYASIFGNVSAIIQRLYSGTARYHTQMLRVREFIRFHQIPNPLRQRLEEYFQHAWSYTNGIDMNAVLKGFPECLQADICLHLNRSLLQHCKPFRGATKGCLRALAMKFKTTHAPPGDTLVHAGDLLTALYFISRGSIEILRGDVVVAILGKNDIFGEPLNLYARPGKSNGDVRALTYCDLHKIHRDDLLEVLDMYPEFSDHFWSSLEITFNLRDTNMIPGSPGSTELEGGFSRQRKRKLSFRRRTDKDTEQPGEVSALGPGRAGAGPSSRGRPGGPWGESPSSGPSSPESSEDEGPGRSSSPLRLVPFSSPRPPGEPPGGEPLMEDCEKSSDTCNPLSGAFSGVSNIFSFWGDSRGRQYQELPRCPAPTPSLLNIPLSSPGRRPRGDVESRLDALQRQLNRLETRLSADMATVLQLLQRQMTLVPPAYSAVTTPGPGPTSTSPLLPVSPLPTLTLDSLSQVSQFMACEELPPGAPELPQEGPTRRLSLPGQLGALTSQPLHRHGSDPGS
hTRPM8, sequence (Q7Z2W7 whole entry): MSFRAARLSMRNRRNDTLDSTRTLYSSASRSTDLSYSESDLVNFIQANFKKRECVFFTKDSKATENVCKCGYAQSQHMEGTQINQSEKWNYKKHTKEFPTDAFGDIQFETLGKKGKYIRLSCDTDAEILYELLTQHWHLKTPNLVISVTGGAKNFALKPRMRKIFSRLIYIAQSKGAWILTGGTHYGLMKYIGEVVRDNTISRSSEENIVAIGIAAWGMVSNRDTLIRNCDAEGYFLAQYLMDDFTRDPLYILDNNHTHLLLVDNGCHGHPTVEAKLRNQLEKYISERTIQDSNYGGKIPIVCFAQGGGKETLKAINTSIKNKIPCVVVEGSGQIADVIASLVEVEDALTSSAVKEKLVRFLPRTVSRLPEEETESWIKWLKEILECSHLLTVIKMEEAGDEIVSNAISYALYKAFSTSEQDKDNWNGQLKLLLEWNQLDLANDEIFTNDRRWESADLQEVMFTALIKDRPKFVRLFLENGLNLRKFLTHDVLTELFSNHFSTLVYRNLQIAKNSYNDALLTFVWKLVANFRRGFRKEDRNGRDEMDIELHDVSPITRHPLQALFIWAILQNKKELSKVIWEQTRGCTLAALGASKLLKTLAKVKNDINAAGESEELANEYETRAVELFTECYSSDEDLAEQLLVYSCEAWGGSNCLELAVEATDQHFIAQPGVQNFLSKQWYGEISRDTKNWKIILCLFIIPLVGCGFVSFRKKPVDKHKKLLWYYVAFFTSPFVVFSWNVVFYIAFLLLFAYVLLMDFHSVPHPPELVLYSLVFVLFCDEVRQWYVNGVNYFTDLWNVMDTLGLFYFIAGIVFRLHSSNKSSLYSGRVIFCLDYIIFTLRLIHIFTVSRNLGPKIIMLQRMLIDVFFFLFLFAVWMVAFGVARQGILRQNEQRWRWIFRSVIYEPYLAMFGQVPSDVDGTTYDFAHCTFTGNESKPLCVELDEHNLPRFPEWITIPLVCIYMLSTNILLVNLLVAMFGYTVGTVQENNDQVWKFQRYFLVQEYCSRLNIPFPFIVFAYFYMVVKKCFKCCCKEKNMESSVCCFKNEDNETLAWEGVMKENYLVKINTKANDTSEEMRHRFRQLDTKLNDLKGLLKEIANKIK
hNaV1.2, sequence (Q99250 whole entry): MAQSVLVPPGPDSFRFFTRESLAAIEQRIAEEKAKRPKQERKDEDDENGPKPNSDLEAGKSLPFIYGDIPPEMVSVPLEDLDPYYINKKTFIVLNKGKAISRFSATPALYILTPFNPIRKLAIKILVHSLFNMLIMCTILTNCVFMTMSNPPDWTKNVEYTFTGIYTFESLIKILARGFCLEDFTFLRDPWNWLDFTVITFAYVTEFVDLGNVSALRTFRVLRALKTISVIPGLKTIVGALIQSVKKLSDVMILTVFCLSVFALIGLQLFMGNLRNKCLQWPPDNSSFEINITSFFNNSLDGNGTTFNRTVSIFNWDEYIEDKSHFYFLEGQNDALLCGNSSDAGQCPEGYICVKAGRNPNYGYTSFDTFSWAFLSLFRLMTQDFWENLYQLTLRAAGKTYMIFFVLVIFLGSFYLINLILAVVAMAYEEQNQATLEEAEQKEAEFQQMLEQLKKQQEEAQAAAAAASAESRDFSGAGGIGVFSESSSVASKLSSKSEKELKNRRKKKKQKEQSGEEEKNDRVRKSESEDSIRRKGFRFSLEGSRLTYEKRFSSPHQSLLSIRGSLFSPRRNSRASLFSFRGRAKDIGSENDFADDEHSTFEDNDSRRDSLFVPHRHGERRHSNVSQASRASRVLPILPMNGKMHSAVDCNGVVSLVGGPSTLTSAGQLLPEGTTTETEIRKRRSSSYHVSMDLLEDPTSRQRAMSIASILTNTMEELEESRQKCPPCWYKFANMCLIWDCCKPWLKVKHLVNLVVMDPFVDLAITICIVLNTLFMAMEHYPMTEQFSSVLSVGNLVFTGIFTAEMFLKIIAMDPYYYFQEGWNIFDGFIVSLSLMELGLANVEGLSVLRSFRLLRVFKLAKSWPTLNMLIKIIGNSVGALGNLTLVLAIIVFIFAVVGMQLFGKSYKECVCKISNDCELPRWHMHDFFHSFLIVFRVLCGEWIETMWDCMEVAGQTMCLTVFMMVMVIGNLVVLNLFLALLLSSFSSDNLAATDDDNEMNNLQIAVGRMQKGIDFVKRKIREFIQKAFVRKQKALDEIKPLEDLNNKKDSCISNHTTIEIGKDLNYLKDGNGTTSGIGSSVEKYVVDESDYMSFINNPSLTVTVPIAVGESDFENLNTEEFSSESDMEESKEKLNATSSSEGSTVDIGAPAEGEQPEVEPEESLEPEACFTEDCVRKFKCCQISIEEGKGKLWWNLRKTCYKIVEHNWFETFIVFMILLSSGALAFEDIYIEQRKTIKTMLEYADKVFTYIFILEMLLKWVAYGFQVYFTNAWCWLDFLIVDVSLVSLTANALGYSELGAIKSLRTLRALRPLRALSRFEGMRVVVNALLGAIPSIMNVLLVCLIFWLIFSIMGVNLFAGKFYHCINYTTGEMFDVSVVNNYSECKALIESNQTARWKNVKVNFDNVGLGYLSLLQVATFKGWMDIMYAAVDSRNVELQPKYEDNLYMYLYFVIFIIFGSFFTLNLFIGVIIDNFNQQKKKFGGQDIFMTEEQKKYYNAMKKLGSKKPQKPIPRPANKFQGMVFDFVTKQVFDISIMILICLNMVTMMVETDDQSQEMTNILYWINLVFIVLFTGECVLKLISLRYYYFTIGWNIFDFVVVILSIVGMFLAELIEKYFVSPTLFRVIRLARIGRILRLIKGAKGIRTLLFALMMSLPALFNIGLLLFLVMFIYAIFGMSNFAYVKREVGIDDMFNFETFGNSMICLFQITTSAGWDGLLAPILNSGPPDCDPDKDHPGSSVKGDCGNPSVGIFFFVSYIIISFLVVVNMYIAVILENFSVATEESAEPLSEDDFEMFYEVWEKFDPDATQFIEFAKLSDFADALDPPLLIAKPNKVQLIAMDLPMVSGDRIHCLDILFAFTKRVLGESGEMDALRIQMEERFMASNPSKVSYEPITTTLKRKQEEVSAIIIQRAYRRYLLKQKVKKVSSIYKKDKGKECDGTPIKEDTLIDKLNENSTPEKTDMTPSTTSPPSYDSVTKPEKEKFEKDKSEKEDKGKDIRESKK

Consider `C[C@H]1CCCN1c1ncc(-c2cccc(NC(=O)Cn3cnc4c3c(=O)n(C)c(=O)n4C)n2)cn1` [Formula (Ia)], for which the “Fold Selectivity Compared to TRPA1” value at hTRPV3 is listed as above 300 fold; on hTRPM8, around 200 fold; at hNaV1.2, above 100 fold. Besides, the concentration for half-maximal inhibition (IC50) (as a rule, the point on the concentration scale where inhibition reaches its midpoint) at hTRPV3 (30 micromolar 2-APB, Inward (−80 mV)) is above 32 µM; against hTRPM8 (100 micromolar Menthol, Inward (−80 mV)) it was 19 µM; against hERG (Voltage, Tail current (−40 mV)) it was above 10 µM; on hNaV1.2 (Voltage, Peak Inward (0 mV)), above 10 µM. Moreover, the selectivity ratio on hERG (human, pH 7.4, read-out: Fold Selectivity Compared to TRPA1) was above 100. For the same compound, the bioavailability (commonly dose-corrected exposure relative to a reference, in per cent) is above 50% in data set [1] (oral, fed rats, read-out: Bioavailability (Rat) Fed); 25 to 50% in data set [1] (po, fasted rats, read-out: Bioavailability (Rat) Fasted); above 50% in data set [1] (po, fed rats, read-out: Bioavailability (Rat) Fed). Further, the free fraction (fraction unbound) (usually free concentration divided by total concentration) in data set [2] was above 0.01. The safety signals result in data set [3] is “no safety signals seen that were attributable to the compound of Formula (Ia)”.
